Structures are written as SMILES.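 Where inhibition never reached the appropriate level, the endpoint shown equals the highest concentration tested. Otherwise, values were interpolated linearly from a five-concentration, 48-hour dose response in 96-well plates. GI50 is the concentration that inhibits growth by half. TGI denotes the concentration required for complete inhibition of growth.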

Test systems include HCT-15 colon; U251 CNS; UACC-257 melanoma; SNB-19 CNS; NCI-H226 lung; SF-295 CNS; SF-539 CNS; 786-0 renal; SK-OV-3 ovarian; HOP-92 NSCLC.
Holding throughout (assay): NCI-60 cell line screen, 48 h

As to `O=C(/C=C/C12c3ccccc3C(c3ccccc31)C1C(=O)NC(=O)C12)c1ccncc1` (stereo not given), the GI50 was 1.46 µM in the test with HCT-15 colon; 1.62 µM with U251 CNS; 2.7 µM in the test on UACC-257 melanoma; 2.33 µM in the test on SNB-19 CNS; 2.44 µM with NCI-H226 lung; 2.59 µM in the test with SF-295 CNS. Moreover, the GI50 is 2.03 µM in the test with SF-539 CNS, 1.94 µM with 786-0 renal, 13.2 µM with SK-OV-3 ovarian and 1.94 µM with HOP-92 NSCLC. Also, the TGI in the test with HCT-15 colon is 3.94 µM; in the test with U251 CNS it was 3.34 µM; in the test with UACC-257 melanoma, 9.19 µM; in the test on SNB-19 CNS, 7.46 µM; in the test on NCI-H226 lung it was 6.98 µM; in the test with SF-295 CNS, 7.54 µM. In addition, the TGI in the test on SF-539 CNS turned out to be 5.72 µM; in the test with 786-0 renal, 4.76 µM; in the test on SK-OV-3 ovarian, 26.7 µM; with HOP-92 NSCLC, 6.27 µM.

As for `Cc1coc2c1CC1(C)C(CCC(O)C1C)C2` (stereo not given), the TGI with HCT-15 colon, in the test with U251 CNS, with UACC-257 melanoma, in the test on SNB-19 CNS, in the test on NCI-H226 lung and in the test with SF-295 CNS was over 100 µM in each case. Also, the TGI in the test with SF-539 CNS, in the test with 786-0 renal, in the test with SK-OV-3 ovarian and in the test with HOP-92 NSCLC was over 100 µM each time.

As for `COc1ccc(C(=O)Cn2c(C(=O)c3ccccc3)nc(-c3ccc(OC)cc3)c2-c2ccc(OC)cc2)cc1`, the GI50 in the test with HCT-15 colon is over 100 µM; with U251 CNS it was 64.9 µM; with UACC-257 melanoma, over 100 µM; in the test on SNB-19 CNS, over 100 µM; in the test on NCI-H226 lung it was over 100 µM; in the test with SF-295 CNS, 42.5 µM. The GI50 in the test with SF-539 CNS is 31.5 µM; in the test with 786-0 renal, 46.1 µM; in the test on SK-OV-3 ovarian, 97.8 µM; with HOP-92 NSCLC, 24.5 µM. Moreover, the TGI in the test with HCT-15 colon, with U251 CNS, in the test on UACC-257 melanoma, in the test on SNB-19 CNS, in the test on NCI-H226 lung and with SF-295 CNS was over 100 µM throughout. Besides, the TGI with SF-539 CNS is over 100 µM; with 786-0 renal it was over 100 µM; with SK-OV-3 ovarian, over 100 µM; with HOP-92 NSCLC, 60.4 µM.

For `C=C1C(=O)C23CC1CCC2C12CO[C@@H]4OCC(C)(CC[C@@H]1OC3=O)C42` (stereo not given in full), the TGI is 7.88 µM in the test on HCT-15 colon; 27.4 µM in the test on U251 CNS; 10.2 µM with UACC-257 melanoma; 20.3 µM with SNB-19 CNS; 38.4 µM with NCI-H226 lung; 30.9 µM in the test on SF-295 CNS. Besides, the TGI in the test on SF-539 CNS is 14.8 µM; in the test with 786-0 renal, 5.71 µM; in the test on SK-OV-3 ovarian it was 40.1 µM; with HOP-92 NSCLC, 5.78 µM.

On to `CC1=C(C(=O)Nc2ccc(Cl)c(Cl)c2)C(c2cccc(Oc3ccccc3)c2)NC(=S)N1` (stereo not given), for which the GI50 with HCT-15 colon is 8.93 µM; in the test with U251 CNS, 7.84 µM; in the test on UACC-257 melanoma, 9.73 µM; in the test on SNB-19 CNS it was 7.07 µM; in the test with NCI-H226 lung, 9.68 µM; with SF-295 CNS it was 8.15 µM. The GI50 in the test with SF-539 CNS was 6.6 µM; in the test with 786-0 renal, 8.29 µM; in the test on SK-OV-3 ovarian, 8.1 µM; in the test with HOP-92 NSCLC, 13.3 µM. For the same molecule, the TGI in the test with HCT-15 colon stood at 17.4 µM; in the test with U251 CNS it was 14.8 µM; in the test with UACC-257 melanoma, 22 µM; in the test on SNB-19 CNS it was 14.1 µM; in the test with NCI-H226 lung, 19.5 µM; in the test with SF-295 CNS it was 15.3 µM. Moreover, the TGI in the test on SF-539 CNS amounted to 13 µM; in the test with 786-0 renal it was 17.4 µM; in the test on SK-OV-3 ovarian, 16.3 µM; with HOP-92 NSCLC, 31.2 µM.

Turning to `O=C1CC(c2ccc3c(c2)OCO3)Nc2ccccc21` (stereo not given), the GI50 was 5.61 µM with HCT-15 colon; 8.46 µM in the test with U251 CNS; 26.4 µM in the test with UACC-257 melanoma; 12.5 µM in the test with SNB-19 CNS; 24.6 µM with NCI-H226 lung; 10.1 µM in the test with SF-295 CNS. The GI50 in the test with SF-539 CNS was 10.8 µM; with 786-0 renal it was 8.11 µM; in the test with SK-OV-3 ovarian it was 16.8 µM; in the test on HOP-92 NSCLC, 4.96 µM. The TGI with HCT-15 colon was 31 µM; in the test on U251 CNS, 24.7 µM; in the test on UACC-257 melanoma it was over 60.4 µM; with SNB-19 CNS, 30.2 µM; in the test on NCI-H226 lung, over 88 µM; in the test on SF-295 CNS it was 24.1 µM. For the same molecule, the TGI in the test on SF-539 CNS is 24 µM; in the test with 786-0 renal, 40.2 µM; in the test on SK-OV-3 ovarian, over 100 µM; with HOP-92 NSCLC it was 32.3 µM.

On to `O=C1C2C(C(=O)N1OS(=O)(=O)c1ccccc1)N(Cc1ccccc1)C(=O)N2Cc1ccccc1` (stereo not given), for which the TGI with HCT-15 colon, in the test with U251 CNS, with UACC-257 melanoma, with SNB-19 CNS, with NCI-H226 lung and with SF-295 CNS was over 100 µM each time. The TGI with SF-539 CNS, in the test with 786-0 renal, in the test on SK-OV-3 ovarian and in the test with HOP-92 NSCLC was over 100 µM in each case.

On to `O=CN/C=C/c1cc(O)ccc1O`, for which the TGI is 28.2 µM with HCT-15 colon; over 66 µM in the test with U251 CNS; 27.8 µM with UACC-257 melanoma; over 100 µM with SNB-19 CNS; over 88.1 µM with NCI-H226 lung; over 100 µM with SF-295 CNS. Further, the TGI is 43.9 µM in the test with SF-539 CNS, 27.1 µM with 786-0 renal, over 90.5 µM in the test on SK-OV-3 ovarian and 25.6 µM in the test on HOP-92 NSCLC.

Take `COC1(OC)CCC2C1C1CCC(OC)(OC)C21` (stereo not given): the TGI in the test with HCT-15 colon, with U251 CNS, in the test on UACC-257 melanoma, in the test on SNB-19 CNS, in the test with NCI-H226 lung and in the test on SF-295 CNS was over 50 µM each time. Besides, the TGI in the test on SF-539 CNS, in the test on 786-0 renal, with SK-OV-3 ovarian and with HOP-92 NSCLC was over 50 µM each time.

`NC(Cc1c[nH]c2c(O)cccc12)C(=O)O` (stereo not given): the GI50 with HCT-15 colon, in the test with U251 CNS, in the test with UACC-257 melanoma, in the test on SNB-19 CNS, with NCI-H226 lung and with SF-295 CNS was over 100 µM throughout. The GI50 with SF-539 CNS, in the test on 786-0 renal, in the test on SK-OV-3 ovarian and in the test with HOP-92 NSCLC was over 100 µM each time. For the same molecule, the TGI in the test with HCT-15 colon, in the test on U251 CNS, in the test with UACC-257 melanoma, in the test on SNB-19 CNS, with NCI-H226 lung and in the test with SF-295 CNS was over 100 µM each time. Moreover, the TGI with SF-539 CNS, in the test on 786-0 renal, in the test with SK-OV-3 ovarian and in the test on HOP-92 NSCLC was over 100 µM in each case.

For the origin of these results see PubChem BioAssay (NCI).
